The numbers were not newly measured in patent US20200172966A1 (YAMAGUCHI UNIVERSITY, priority 2015, published 2020), which cites them from elsewhere.

The conditions of this data set: patients identified as non-high-risk based on polymorphisms of the UGT1A gene; cited from earlier work.

Consider `CCc1c2c(nc3ccc(OC(=O)N4CCC(N5CCCCC5)CC4)cc13)-c1cc3c(c(=O)n1C2)COC(=O)[C@]3(O)CC` [irinotecan, 1,4′-Bipiperidine-1′-carboxylic acid (S)-4,11-diethyl-3,4,12,14-tetrahydro-4-hydroxy-3,14-dioxo-1H-pyrano[3′,4′:6,7]indolizino[1,2-b]quinolin-9-yl ester], for which the “patients with a side effect” value is 43%.
